Data taken from patent US20200129450A1, “COMPOSITION COMPRISING OSMUNDACETONE OR PHARMACEUTICALLY ACCEPTABLE SALT THEREOF FOR PREVENTING OR TREATING BONE DISEASE” (KORPHARM CO., LTD., priority 2016, published 2020).

Tests used:
[1] = system: osteoclasts differentiated from mouse bone marrow cells; experiment: TRAP assay, osteoclast proliferation and differentiation inhibitory activity; type: cell-based
Protocol: Bone marrow cells were collected from the femur and shin bones of 5-8 week old male C57BL/6 mice. Muscles were removed from the bones, and stored in cold phosphate buffered saline (PBS; # CAP08-050, GenDEPOT, Katy, Tex., USA).
Both ends of each bone were cut, and the bone marrow was flushed with a flushing medium (serum-free α-MEM, 2 mM ethylenediaminetetraacetic acid) kept cool, using a 25 G needle.
Bone marrow cells were collected by centrifugation at 3,000 rpm for 3 min using Labogene 1248R (Labogene, Lynge, Denmark), and then resuspended in a wash medium. Thereafter, 8 mL of the collected bone marrow cells were overlaid on 6 mL of a lymphocyte isolation medium (LSM; #50494, MP Biomedicals, Santa Ana, Calif., USA), followed by centrifugation at 1,600 rpm for 20 minutes, thereby isolating mononuclear cells.
The mononuclear cell bands were collected from the media interface, and incubated using complete α-MEM (containing 10% fatal bovine serum (FBS; Capricorn Scientific, Ebsdorfergrund, Germany) and 1% (v/v) antibiotic (including 100 U/mL penicillin G and […] streptomycin)) in the conditions of 37° C. and 5% CO2 while the medium was exchanged every three days.
In order to promote the differentiation of osteoclasts, 1×10^5 cells were incubated in 0.5 mL of the medium per well in a 48-well plate, in the presence of osteoclast differentiation factors, M-CSF (60 ng/mL) and RANKL (150 ng/mL), purchased from PeproTec (Seoul, Korea). As known, macrophages/monocytes derived from one bone marrow differentiated into mature multinucleated osteoclasts after 6 days (Gurt et al., 2015).
The tibia and femur of 6-8 week old male C57BL/6 mice were aseptically resected, and bone marrow cells were aseptically collected using a syringe (21 G, Korea Green Cross). The bone marrow cells were floated in 500 μL of α-MEM medium (Gibco BRL Co.) containing sodium bicarbonate (2.0 g/L), streptomycin (100 mg/L), and penicillin ([…]), dispensed in a 48-well plate, and assayed in triplicate. Mononuclear cells as precursor cells of osteoclasts were treated with RANKL and M-CSF as differentiation promoting factors, and thus differentiated into osteoclasts within 5-7 days.
2-1) Sample preparation: The hot-water extract, EA extract, or fraction of Osmunda japonica were prepared by the same methods as in section 1 of <Example 1>. The EA-2 extract was dissolved in a minimum amount of DMSO, and then diluted with water to 70% of the original volume of the hot-water extract assuming that the yield of EA-2 extraction was approximately 70%. 2-2) Sample administration: The sample was continuously administered to a medium at 1:20 (v/v; 25 μL of the sample per 500 μL of the medium) from day 1 of incubation of bone marrow cells, while the medium was exchanged every 2-3 days. 2-3) Measurement of osteoclast differentiation Osteoclasts were defined by TRAP-positive multinucleated cells stained with TRAP. As for TRAP stain solution, 5 mg of naphthol AS-MS phosphate (Sigma N-4875) as a base and 25 mg of Fast Red Violet LB salt as a color developing reagent were dissolved in about 0.5 mL of N,N-dimethylformamide, and then mixed with 0.1N NaHCO3 buffer solution (50 mL) containing 50 mM tartaric acid. The reaction reagent was stored in a refrigerator before use.
After bone marrow cells were incubated in a medium containing differentiation promoting factors for 7 days, the medium was removed, and the cells were washed with PBS, and then immobilized with PBS containing 10% formalin for 2-5 minutes. Thereafter, the cells were immobilized with a 1:1 mixture solution of ethanol and acetone, followed by drying. The immobilized cells were treated with the TRAP stain solution for 15 minutes, and washed with PBS, and then the degree of cell staining was observed by a microscope.
In the microscope field of view, cells having two or more nuclei in the TRAP-positive cells were determined to be osteoclasts, and the number of cells was measured. […]

ALP activity in MC3T3-E1 = experiment: Measurement of ALP activity in MC3T3-E1; type: cell-based, mouse; conditions: 1 μM (positive control, printed in the 10 μM column), MC3T3-E1
Protocol: ALP activity was assessed using Quantichrom ALP Assay Kit (Bioassay Systems, Hayward, Calif., USA) according to manufacturer's instructions.
Briefly, 3×10^3 MC3T3-E1 cells were dispensed in a 96-well plate together with […] of complete α-MEM containing ascorbic acid (50 μg/mL) and 10 mM β-glycerophosphate per well. Here, osmundacetone (10 μM and 50 μM) was added or not added, and the medium was exchanged every 3-4 days.
On day 14 of the incubation, the colorimetric change due to ALP activity in the cell fraction was measured using a spectrophotometer plate reader (Molecular Devices, Sunnyvale, Calif., USA) at 405 nm (Kim et al., 2016). The % activation of ALP activity was shown by comparing ALP activity of cells treated with an experimental compound and ALP activity of the non-treated control cells.

## NCCCC(O)(P(=O)(O)O)P(=O)(O)O [Fosamax, alendronate, reference compound]
[1]; 1 μM
  formation of giant osteoclasts, number compared with the positive control group: smaller compared with the positive control group
[1]; Mus musculus, Osteoclast, tested at 1, 4, 7 and 10 μM, TRAP-positive multinucleated cells
  IC50: ≤ 4 µM

## Parathyroid hormone-related peptide [reference compound]
ALP activity in MC3T3-E1
  % Activation of ALP activity: 138 ± 19%
